Laboratory results: US6410564B1, “Naphthyl compounds, intermediates, processes, compositions, and methods” (Eli Lilly and Company, priority 1994, dated 2002)
Like-named read-outs stand apart in the source and are kept apart here.

Tests used:
[1] = system: MCF-7 breast adenocarcinoma cells; test: MCF-7 Proliferation Assay (tritiated thymidine); assay type: cell-based; conditions: MCF-7 cells, 48 hours with drug, tritiated thymidine pulse 4 hours
Protocol: MCF-7 breast adenocarcinoma cells (ATCC HTB 22) were maintained in MEM (minimal essential medium, phenol red-free, Sigma, St. Louis, Mo.) supplimented with 10% fetal bovine serum (FBS) (V/V), L-glutamine ([…]), sodium pyruvate (1 mM), HEPES {(N-[2-hydroxyethyl]piperazine-N′-[2-ethanesulfonic acid]10 mM}, non-essential amino acids and bovine insulin (1 ug/mL) (maintenance medium). Ten days prior to assay, MCF-7 cells were switched to maintenance medium supplemented with 10% dextran coated charcoal stripped fetal bovine serum (DCC-FBS) assay medium) in place of 10% FBS to deplete internal stores of steroids. MCF-7 cells were removed from maintenance flasks using cell dissociation medium (Ca++/Mg++ free HBSS (phenol red-free) supplemented with 10 mM HEPES and 2 mM EDTA). Cells were washed twice with assay medium and adjusted to 80,000 cells/mL. Approximately 100 μL (8,000 cells) were added to flat-bottom microculture wells (Costar 3596) and incubated at 37° C. in a 5% CO2 humidified incubator for 48 hours to allow for cell adherence and equilibration after transfer. Serial dilutions of drugs or DMSO as a diluent control were prepared in assay medium and 50 μL transferred to triplicate microcultures followed by 50 μL assay medium for a final volume of 200 μL. After an additional 48 hours at 37° C. in a 5% CO2 humidified incubator, microcultures were pulsed with tritiated thymidine (1 uCi/well) for 4 hours. Cultures were terminated by freezing at −70° C. for 24 hours followed by thawing and harvesting of microcultures using a Skatron Semiautomatic Cell Harvester. Samples were counted by liquid scintillation using a Wallac BetaPlace β counter. Results in Table 4 below show the IC50 for certain compounds of the present invention.

[2] = system: ovariectomized (OVX) female Sprague Dawley rats; test: Serum cholesterol in OVX rats, 4-day dosing; assay type: in vivo, rat; conditions: oral daily for 4 days; for inhibition in vivo at 0.01 mg/kg / inhibition in vivo at 0.1 mg/kg / inhibition in vivo at 1 mg/kg / inhibition in vivo at 10 mg/kg: Rattus norvegicus, po, 96 h, read-out: Serum Cholesterol (% decrease vs. OVX)
From the text: (§1) Seventy-five day old female Sprague Dawley rats (weight range of 200 to 225 g) were obtained from Charles River Laboratories (Portage, Mich.). The animals were either bilaterally ovariectomized (OVX) or exposed to a Sham surgical procedure at Charles River Laboratories, and then shipped after one week. Upon arrival, they were housed in metal hanging cages in groups of 3 or 4 per cage and had ad libitum access to food (calcium content approximately 0.5%) and water for one week. Room temperature was maintained at 22.2°±1.7° C. with a minimum relative humidity of 40%. The photoperiod in the room was 12 hours light and 12 hours dark.
(§2) Dosing Regimen Tissue Collection. After a one week acclimation period (therefore, two weeks post-OVX) daily dosing with test compound was initiated. 17α-ethynyl estradiol or the test compound were given orally, unless otherwise stated, as a suspension in 1% carboxymethylcellulose or dissolved in 20% cyclodextrin. Animals were dosed daily for 4 days. Following the dosing regimen, animals were weighed and anesthetized with a ketamine: Xylazie (2:1, V:V) mixture and a blood sample was collected by cardiac puncture. The animals were then sacrificed by asphyxiation with CO2, the uterus was removed through a midline incision, and a wet uterine weight was determined.
Cholesterol Analysis. Blood samples were allowed to clot at room temperature for 2 hours, and serum was obtained following centrifugation for 10 minutes at 3000 rpm. Serum cholesterol was determined using a Boehringer Mannheim Diagnostics high performance cholesterol assay. Briefly the cholesterol was oxidized to cholest-4-en-3-one and hydrogen peroxide. The hydrogen peroxide was then reacted with phenol and 4-aminophenazone in the pressure of peroxidase to produce a p-quinone imine dye, which was read spectrophotemetrically at 500 nm. Cholesterol concentration was then calculated against a standard curve. The entire assay was automated using a Biomek Automated Workstation.
(§3) Data presented in Table 1 below show comparative results among ovariectomized rats, rats treated with 17α-ethynyl estradiol (EE2; an orally available form of estrogen), and rats treated with certain compounds of the present invention. […] This uterine response to estrogen is well recognized in the art.
(§4) The data presented in the Tables 1 below reflects the response of 5 to 6 rats per treatment.

[3] = system: Uterine Eosinophil Peroxidase (EPO); conditions: rat, in vivo, po
From the text: as §1, §2
Uterine Eosinophil Peroxidase (EPO) Assay. Uteri were kept at 4° C. until time of enzymatic analysis. The uteri were then homogenized in 50 volumes of 50 mM Tris Buffer (pH −8.0) containing 0.005% Triton X-100. Upon addition of 0.01% hydrogen peroxide and 10 mM O-phenylenediamine (final concentrations) in Tris buffer, increase in absorbance was monitored for one minute at 450 nm. The presence of eosonophils in the uterus is an indication of estrogenic activity of a compound. The maximal velocity of a 15 second interval was determined over the initial, linear portion of the reaction curve.
As is expressed in the below data, estrogenicity also was assessed by evaluating the adverse response to eosinophil infiltration into the uterus.
as §4

[4] = system: ovariectomized (OVX) female Sprague Dawley rats; test: Osteoporosis Test Procedure: distal femur metaphysis X-ray image analysis, OVX rats, 35 days; assay type: in vivo, rat; conditions: mean ± SEM
From the text: as §1
Following the General Preparation Procedure, infra, the rats were treated daily for 35 days (6 rats per treatment group) and sacrificed by carbon dioxide asphyxiation on the 36th day. The 35 day time period was sufficient to allow maximal reduction in bone density, measured as described herein. At the time of sacrifice, the uteri were removed, dissected free of extraneous tissue, and the fluid contents were expelled before determination of wet weight in order to confirm estrogen deficiency associated with complete ovariectomy. […] The uteri were then placed in 10% neutral buffered formalin to allow for subsequent histological analysis.
The right femurs were excised and digitilized x-rays generated and analyzed by an image analysis program (NIH image) at the distal metaphysis. The proximal aspect of the tibiae from these animals were also scanned by quantitative computed tomography.
In accordance with the above procedures, compounds of the present invention and ethynyl estradiol (EE2) in 20% hydroxypropyl β-cyclodextrin were orally administered to test animals. Distal femur metaphysis data presented in Tables 2 and 3 below are the results of formula I compound treatments compared to intact and ovariectomized test animals. Results are reported as the mean ± the standard error of the mean.

[5] = system: ovariectomized (OVX) female Sprague Dawley rats; conditions: rat, in vivo, po, 4 days
Protocol: In the examples illustrating the methods, a post-menopausal model was used in which effects of different treatments upon circulating lipids were determined.
as §1, §2, §3, §4

[6] = Homo sapiens, MCF7, read-out: IC50
[7] = Table 2, oral daily 35 days in 20% cyclodextrin, 0.1 mg/kg, OVX control 5.5 ± 0.6, Sham 30.5 ± 4.3
[8] = Table 2, oral daily 35 days in 20% cyclodextrin, 1.0 mg/kg, OVX control 5.5 ± 0.6, Sham 30.5 ± 4.3
[9] = Table 2, oral daily 35 days in 20% cyclodextrin, 10.0 mg/kg, OVX control 5.5 ± 0.6, Sham 30.5 ± 4.3
[10] = female, Sprague Dawley, 0.01 mg/kg, 4 days
[11] = female, Sprague Dawley, 0.1 mg/kg, 4 days
[12] = female, Sprague Dawley, 1 mg/kg, 4 days
[13] = female, Sprague Dawley, 10 mg/kg, 4 days

CCN(CC)CCOc1ccc(Cc2c(-c3ccc(O)cc3)ccc3cc(O)ccc23)cc1 [Example 24, [2-(4-hydroxyphenyl)-6-hydroxynaphthalen-1-yl][4-[2-(1-N,N-diethylamino)ethoxy]phenyl]methane]
IC50 [1]: Not active
Serum Cholesterol (% decrease vs. OVX) ([2]; dose 0.1 mg/kg): 69.2%
Serum Cholesterol (% decrease vs. OVX) ([2]; dose 1.0 mg/kg): 50.0%
Serum Cholesterol (% decrease vs. OVX) ([2]; dose 10.0 mg/kg): 48.4%
Uterine EPO (V. max) ([3]; 0.1 mg/kg): 13.8
Uterine EPO (V. max) ([3]; 1 mg/kg): 55.8
Uterine EPO (V. max) ([3]; 10 mg/kg): 36.3

COc1ccc(-c2ccc3cc(OC)ccc3c2Cc2ccc(OCCN3CCCCC3)cc2)cc1.Cl [Example 1, [2-(4-Methoxyphenyl)-6-methoxynaphthalen-1-yl][4-[2-(1-piperidinyl)ethoxy]phenyl]methane hydrochloride]
IC50 [1, 6]: 100000 pM
inhibition in vivo at 0.01 mg/kg [2]: 42.9%
inhibition in vivo at 0.1 mg/kg ([2]; dose 0.1 mg/kg): 59.9%
inhibition in vivo at 1 mg/kg ([2]; dose 1.0 mg/kg): 75%
inhibition in vivo at 10 mg/kg ([2]; dose 10.0 mg/kg): 63.4%
Distal Femur Metaphysis (X-ray Image Analysis-Gray Score) [4, 7]: 24.7 ± 4.2
Distal Femur Metaphysis (X-ray Image Analysis-Gray Score) [4, 8]: 21.7 ± 4.7
Distal Femur Metaphysis (X-ray Image Analysis-Gray Score) [4, 9]: 21.9 ± 3.2
Uterine Weight (% increase vs. OVX) ([5]; 0.01 mg/kg): −11.2%
Uterine Weight (% increase vs. OVX) ([5]; 0.1 mg/kg): 23.1%
Uterine Weight (% increase vs. OVX) ([5]; 1 mg/kg): 29.7%
Uterine Weight (% increase vs. OVX) ([5]; 10 mg/kg): 12.2%
Uterine EPO (V. max) [3, 10]: 4.2
Uterine EPO (V. max) [3, 11]: 7.2
Uterine EPO (V. max) [3, 12]: 4.5
Uterine EPO (V. max) [3, 13]: 3.6

Oc1ccc(-c2ccc3cc(O)ccc3c2Cc2ccc(OCCN3CCCCCC3)cc2)cc1 [Example 27, [2-(4-Hydroxyphenyl)-6-hydroxynaphthalen-1-yl][4-[2-(1-hexamethyleneiminyl)ethoxy]phenyl]methane]
IC50 [1, 6]: 1000 pM

O=C(Oc1ccc(-c2ccc3cc(OC(=O)c4ccccc4)ccc3c2Cc2ccc(OCCN3CCCCC3)cc2)cc1)c1ccccc1 [Example 3, [2-(4-Benzoyloxyphenyl)-6-benzoyloxynaphthalen-1-yl][4-[2-(1-piperidinyl)ethoxy]phenyl]methane]
IC50 [1, 6]: 700 pM
inhibition in vivo at 0.01 mg/kg [2]: 33.3%
inhibition in vivo at 0.1 mg/kg ([2]; dose 0.1 mg/kg): 56.7%
inhibition in vivo at 1 mg/kg ([2]; dose 1.0 mg/kg): 63.6%
inhibition in vivo at 10 mg/kg ([2]; dose 10.0 mg/kg): 74.7%
Distal Femur Metaphysis (X-ray Image Analysis-Gray Score) [4, 7]: 14.5 ± 3.6
Distal Femur Metaphysis (X-ray Image Analysis-Gray Score) [4, 8]: 31.4 ± 5.8
Distal Femur Metaphysis (X-ray Image Analysis-Gray Score) [4, 9]: 26.6 ± 6.3
Uterine Weight (% increase vs. OVX) ([5]; 0.01 mg/kg): 2.0%
Uterine Weight (% increase vs. OVX) ([5]; 0.1 mg/kg): 7.1%
Uterine Weight (% increase vs. OVX) ([5]; 1 mg/kg): 0.0%
Uterine Weight (% increase vs. OVX) ([5]; 10 mg/kg): 4.5%
Uterine EPO (V. max) [3, 10]: 5.4
Uterine EPO (V. max) [3, 11]: 4.2
Uterine EPO (V. max) [3, 12]: 4.2
Uterine EPO (V. max) [3, 13]: 4.8

Cl.Oc1ccc(-c2ccc3cc(O)ccc3c2Cc2ccc(OCCN3CCCCC3)cc2)cc1 [Example 2, [2-(4-Hydroxyphenyl)-6-hydroxynaphthalen-1-yl][4-[2-(1-piperidinyl)ethoxy]phenyl]methane hydrochloride]
IC50 [1, 6]: 100 pM
inhibition in vivo at 0.01 mg/kg [2]: 34.2%
inhibition in vivo at 0.1 mg/kg ([2]; dose 0.1 mg/kg): 63%
inhibition in vivo at 1 mg/kg ([2]; dose 1.0 mg/kg): 78.1%
inhibition in vivo at 10 mg/kg ([2]; dose 10.0 mg/kg): 58.8%
Distal Femur Metaphysis (X-ray Image Analysis-Gray Score) ([4]; Table 3, oral daily 35 days in 20% cyclodextrin, 0.01 mg/kg, OVX control 7.2 ± 2.2, Sham 44.7 ± 6.4): 19.6 ± 3.3
Distal Femur Metaphysis (X-ray Image Analysis-Gray Score) ([4]; Table 3, oral daily 35 days in 20% cyclodextrin, 0.1 mg/kg, OVX control 7.2 ± 2.2, Sham 44.7 ± 6.4): 25.7 ± 5.9
Distal Femur Metaphysis (X-ray Image Analysis-Gray Score) ([4]; Table 3, oral daily 35 days in 20% cyclodextrin, 1.0 mg/kg, OVX control 7.2 ± 2.2, Sham 44.7 ± 6.4): 21.5 ± 3.2
Distal Femur Metaphysis (X-ray Image Analysis-Gray Score) ([4]; Table 3, oral daily 35 days in 20% cyclodextrin, 10.0 mg/kg, OVX control 7.2 ± 2.2, Sham 44.7 ± 6.4): 30.0 ± 4.5
Uterine Weight (% increase vs. OVX) ([5]; 0.01 mg/kg): 2.4%
Uterine Weight (% increase vs. OVX) ([5]; 0.1 mg/kg): 24.6%
Uterine Weight (% increase vs. OVX) ([5]; 1 mg/kg): 4.1%
Uterine Weight (% increase vs. OVX) ([5]; 10 mg/kg): 2.6%
Uterine EPO (V. max) [3, 10]: 4.5
Uterine EPO (V. max) [3, 11]: 4.5
Uterine EPO (V. max) [3, 12]: 4.8
Uterine EPO (V. max) [3, 13]: 4.2
